For the test, the target named is recombinant DYRK1A kinase (Homo sapiens (Human), UniProt Q13627). As to the kind of experiment: DYRK1A kinase assay (Ser/Thr 18 peptide Z-lyte FRET). Particulars: DYRK1A kinase activity, Z-lyte Ser/Thr 18 peptide, 15 μM ATP; method text calls the value IC50; read-out: EC50 (the source's name). The test is classed as biochemical. In outline:
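Steps: combine 0.25 μg/mL kinase, 15 μM ATP and 4 μM peptide with test compound; incubate 1 h at room temperature; add diluted development reagent for another hour; read coumarin and fluorescein emission at Ex 400. The emission ratio yields percent phosphorylation, from which IC50 is derived.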
As to `CCN1CC[C@@H](Nc2nc(OC)c3c(-c4ccc5nnn(CC(F)F)c5c4)ccn3n2)C(F)(F)C1` [Compound 780, (R)-5-(1-(2,2-Difluoroethyl)-1H-benzo[d][1,2,3]triazol-6-yl)-N-(1-ethyl-3,3-difluoropiperidin-4-yl)-4-methoxypyrrolo[2,1-f][1,2,4]triazin-2-amine], the IC50 is 1.9 nM.

For `COc1nc(N[C@@H]2CCN(C3COC3)CC2(F)F)nn2ccc(-c3ccc4nnn(CC(F)F)c4c3)c12` [Compound 785, (R)—N-(3,3-Difluoro-1-(oxetan-3-yl)piperidin-4-yl)-5-(1-(2,2-difluoroethyl)-1H-benzo[d][1,2,3]triazol-6-yl)-4-methoxypyrrolo[2,1-f][1,2,4]triazin-2-amine], the IC50 is 0.5 nM.

As for `COc1nc(N[C@@H]2CCN(C(C)=O)CC2(F)F)nn2ccc(-c3ccc4nnn(CC(F)F)c4c3)c12` [Compound 788, (R)-1-(4-((5-(1-(2,2-Difluoroethyl)-1H-benzo[d][1,2,3]triazol-6-yl)-4-methoxypyrrolo[2,1-f][1,2,4]triazin-2-yl)amino)-3,3-difluoropiperidin-1-yl)ethan-1-one], the IC50 was found to be 0.7 nM.

On to `COc1nc(N[C@@H]2CCN(C(=O)C3(C#N)CC3)CC2(F)F)nn2ccc(-c3ccc4nnn(CC(F)F)c4c3)c12` [Compound 791, (R)-1-(4-((5-(1-(2,2-Difluoroethyl)-1H-benzo[d][1,2,3]triazol-6-yl)-4-methoxypyrrolo[2,1-f][1,2,4]triazin-2-yl)amino)-3,3-difluoropiperidine-1-carbonyl)cyclopropane-1-carbonitrile], for which the IC50 is 2.2 nM.

As for `COc1nc(NC2CCC(=O)N(C)C2)nn2ccc(-c3ccc4nnn(CC(F)F)c4c3)c12` (stereo not shown) [Compound 793, 5-((5-(1-(2,2-Difluoroethyl)-1H-benzo[d][1,2,3]triazol-6-yl)-4-methoxypyrrolo[2,1-f][1,2,4]triazin-2-yl)amino)-1-methylpiperidin-2-one], the IC50 worked out at 1.3 nM.

For the compound `COc1nc(NC23CCC(O)(CC2)C3)nn2ccc(-c3ccc4nnn(CC(F)F)c4c3)c12` [Compound 798, 4-((5-(1-(2,2-Difluoroethyl)-1H-benzo[d][1,2,3]triazol-6-yl)-4-methoxypyrrolo[2,1-f][1,2,4]triazin-2-yl)amino)bicyclo[2.2.1]heptan-1-ol], the IC50 was 0.3 nM.

For `COc1nc(NC2CCC3(CC2)CN(C(C)=O)C3)nn2ccc(-c3ccc4nnn(CC(F)F)c4c3)c12` [Compound 799, 1-(7-((5-(1-(2,2-Difluoroethyl)-1H-benzo[d][1,2,3]triazol-6-yl)-4-methoxypyrrolo[2,1-f][1,2,4]triazin-2-yl)amino)-2-azaspiro[3.5]nonan-2-yl)ethan-1-one], the IC50 amounted to 1.7 nM.

For `COc1nc(NC2CCC3(CC2)COC3)nn2ccc(-c3ccc4nnn(CC(F)F)c4c3)c12` [Compound 801, 5-(1-(2,2-Difluoroethyl)-1H-benzo[d][1,2,3]triazol-6-yl)-4-methoxy-N-(2-oxaspiro[3.5]nonan-7-yl)pyrrolo[2,1-f][1,2,4]triazin-2-amine], the IC50 was found to be 3.2 nM.

As to `COc1nc(N[C@H]2C[C@@](C)(NC(C)=O)C2)nn2ccc(-c3cc(F)c4nnn(CC(F)F)c4c3)c12` [Compound 805, N-((1s,3s)-3-((5-(1-(2,2-Difluoroethyl)-4-fluoro-1H-benzo[d][1,2,3]triazol-6-yl)-4-methoxypyrrolo[2,1-f][1,2,4]triazin-2-yl)amino)-1-methylcyclobutyl)acetamide], the IC50 came to 1.6 nM.

On to `COc1nc(N[C@H]2C[C@](C)(NC(C)=O)C2)nn2ccc(-c3cc(F)c4nnn(CC(F)F)c4c3)c12` [Compound 806, N-((1r,3r)-3-((5-(1-(2,2-Difluoroethyl)-4-fluoro-1H-benzo[d][1,2,3]triazol-6-yl)-4-methoxypyrrolo[2,1-f][1,2,4]triazin-2-yl)amino)-1-methylcyclobutyl)acetamide], for which the IC50 turned out to be 1.4 nM.

Turning to `COc1nc(N[C@H]2CC[C@@](C)(O)CC2)nn2ccc(-c3cc(F)c4nnn(CC(F)F)c4c3)c12` [Compound 810, (1s,4s)-4-((5-(1-(2,2-Difluoroethyl)-4-fluoro-1H-benzo[d][1,2,3]triazol-6-yl)-4-methoxypyrrolo[2,1-f][1,2,4]triazin-2-yl)amino)-1-methylcyclohexan-1-ol], the IC50 was 10.9 nM.

`COc1nc(N[C@H]2CC[C@](C)(O)CC2)nn2ccc(-c3cc(F)c4nnn(CC(F)F)c4c3)c12` [Compound 811, (1r,4r)-4-((5-(1-(2,2-Difluoroethyl)-4-fluoro-1H-benzo[d][1,2,3]triazol-6-yl)-4-methoxypyrrolo[2,1-f][1,2,4]triazin-2-yl)amino)-1-methylcyclohexan-1-ol]: the IC50 is 1.7 nM.

As to `COc1nc(N[C@@H]2CN(C(C)=O)C[C@@H]2F)nn2ccc(-c3cc(F)c4nnn(CC(F)F)c4c3)c12` [Compound 812, 1-((3R,4S)-3-((5-(1-(2,2-Difluoroethyl)-4-fluoro-1H-benzo[d][1,2,3]triazol-6-yl)-4-methoxypyrrolo[2,1-f][1,2,4]triazin-2-yl)amino)-4-fluoropyrrolidin-1-yl)ethan-1-one], the IC50 is 2.8 nM.

For `COc1nc(N[C@H]2CCN(C(C)=O)C[C@H]2F)nn2ccc(-c3cc(F)c4nnn(CC(F)F)c4c3)c12` [Compound 816, 1-((3R,4S)-4-((5-(1-(2,2-Difluoroethyl)-4-fluoro-1H-benzo[d][1,2,3]triazol-6-yl)-4-methoxypyrrolo[2,1-f][1,2,4]triazin-2-yl)amino)-3-fluoropiperidin-1-yl)ethan-1-one], the IC50 was 2.8 nM.

For `COc1nc(N[C@H]2CCN(C3COC3)C[C@H]2F)nn2ccc(-c3cc(F)c4nnn(CC(F)F)c4c3)c12` [Compound 818, 5-(1-(2,2-Difluoroethyl)-4-fluoro-1H-benzo[d][1,2,3]triazol-6-yl)-N-((3R,4S)-3-fluoro-1-(oxetan-3-yl)piperidin-4-yl)-4-methoxypyrrolo[2,1-f][1,2,4]triazin-2-amine], the IC50 was determined as 0.8 nM.

For `COc1nc(N[C@@H]2CCN(C(C)=O)CC2(F)F)nn2ccc(-c3cc(F)c4nnn(CC(F)F)c4c3)c12` [Compound 821, (R)-1-(4-((5-(1-(2,2-Difluoroethyl)-4-fluoro-1H-benzo[d][1,2,3]triazol-6-yl)-4-methoxypyrrolo[2,1-f][1,2,4]triazin-2-yl)amino)-3,3-difluoropiperidin-1-yl)ethan-1-one], the IC50 was 1.9 nM.

Consider `COc1nc(N[C@@H]2CCN(C3COC3)CC2(F)F)nn2ccc(-c3cc(F)c4nnn(CC(F)F)c4c3)c12` [Compound 822, (R)—N-(3,3-Difluoro-1-(oxetan-3-yl)piperidin-4-yl)-5-(1-(2,2-difluoroethyl)-4-fluoro-1H-benzo[d][1,2,3]triazol-6-yl)-4-methoxypyrrolo[2,1-f][1,2,4]triazin-2-amine], for which the IC50 was determined as 1.8 nM.

For the compound `COc1nc(N[C@H]2CCN(C(C)=O)C[C@H]2F)nn2cc(F)c(-c3ccc4nnn(CC(F)F)c4c3)c12` [Compound 856, 1-((3R,4S)-4-((5-(1-(2,2-Difluoroethyl)-1H-benzo[d][1,2,3]triazol-6-yl)-6-fluoro-4-methoxypyrrolo[2,1-f][1,2,4]triazin-2-yl)amino)-3-fluoropiperidin-1-yl)ethan-1-one], the IC50 was 1.9 nM.

With `COc1nc(N[C@H]2C[C@@H](OCCO)C2)nn2ccc(-c3ccc4nnn(CC(F)(F)F)c4c3)c12` [Compound 904, 2-(cis-3-((4-Methoxy-5-(1-(2,2,2-trifluoroethyl)-1H-benzo[d][1,2,3]triazol-6-yl)pyrrolo[2,1-f][1,2,4]triazin-2-yl)amino)cyclobutoxy)ethan-1-ol], the IC50 turned out to be 1.8 nM.

For the compound `COc1nc(N[C@H]2C[C@@](C)(NC(C)=O)C2)nn2ccc(-c3ccc4nnn(CC(F)(F)F)c4c3)c12` [Compound 905, N-((1s,3s)-3-((4-Methoxy-5-(1-(2,2,2-trifluoroethyl)-1H-benzo[d][1,2,3]triazol-6-yl)pyrrolo[2,1-f][1,2,4]triazin-2-yl)amino)-1-methylcyclobutyl)acetamide], the IC50 was found to be 0.4 nM.

Turning to `COc1nc(N[C@H]2CC[C@@](C)(O)CC2)nn2ccc(-c3ccc4nnn(CC(F)(F)F)c4c3)c12` [Compound 910, (1s,4s)-4-((4-Methoxy-5-(1-(2,2,2-trifluoroethyl)-1H-benzo[d][1,2,3]triazol-6-yl)pyrrolo[2,1-f][1,2,4]triazin-2-yl)amino)-1-methylcyclohexan-1-ol], the IC50 is 7.7 nM.

For `COc1nc(N[C@H]2CC[C@](C)(O)CC2)nn2ccc(-c3ccc4nnn(CC(F)(F)F)c4c3)c12` [Compound 911, (1r,4r)-4-((4-Methoxy-5-(1-(2,2,2-trifluoroethyl)-1H-benzo[d][1,2,3]triazol-6-yl)pyrrolo[2,1-f][1,2,4]triazin-2-yl)amino)-1-methylcyclohexan-1-ol], the IC50 was 2.1 nM.

Consider `COc1nc(N[C@@H]2CN(C(C)=O)C[C@@H]2F)nn2ccc(-c3ccc4nnn(CC(F)(F)F)c4c3)c12` [Compound 912, 1-((3S,4R)-3-Fluoro-4-((4-methoxy-5-(1-(2,2,2-trifluoroethyl)-1H-benzo[d][1,2,3]triazol-6-yl)pyrrolo[2,1-f][1,2,4]triazin-2-yl)amino)pyrrolidin-1-yl)ethan-1-one], for which the IC50 was found to be 0.8 nM.

Consider `COc1nc(N[C@H]2CCN(C(C)=O)C[C@H]2F)nn2ccc(-c3ccc4nnn(CC(F)(F)F)c4c3)c12` [Compound 916, 1-((3R,4S)-3-Fluoro-4-((4-methoxy-5-(1-(2,2,2-trifluoroethyl)-1H-benzo[d][1,2,3]triazol-6-yl)pyrrolo [2,1-f][1,2,4]triazin-2-yl)amino)piperidin-1-yl)ethan-1-one], for which the IC50 came to 1.4 nM.

As for `COc1nc(N[C@@H]2CCN(C(C)=O)CC2(F)F)nn2ccc(-c3ccc4nnn(CC(F)(F)F)c4c3)c12` [Compound 921, (R)-1-(3,3-Difluoro-4-((4-methoxy-5-(1-(2,2,2-trifluoroethyl)-1H-benzo[d]1[1,2,3]triazol-6-yl)pyrrolo[2,1-f][1,2,4]triazin-2-yl)amino)piperidin-1-yl)ethan-1-one], the IC50 stood at 1.4 nM.

Values taken from patent publication US20240002391A1, “4-ALKOXYPYRROLO[2,1-F][1,2,4]TRIAZINES AND PREPARATION AND USES THEREOF” (BioSplice Therapeutics, Inc., priority 2022, published 2024).
